Data on 1 substance can be found in US20050272682A1, “SiRNA targeting PI3K signal transduction pathway and siRNA-based therapy” (priority 2004, published 2005).

Entries after “also recorded” stand apart in the source; their conditions may differ.

In data set [1] the test system is PI3K/Akt pathway. Kind of data set: Western blot and immunofluorescence of Akt1, p85α and pAkt in transfected KM20 cells. It counts as cell-based, human. As to the method:
Cell culture transfection was carried out with siPORT™ Amine transfection agent according to the manufacturer's protocol. Three days after transfection with the siRNA duplexes, cells were harvested and protein expression was assessed by Western blot.
(§1) Western immunoblot analyses were performed as described previously (Wang, et al., 2000). Cells were lysed with TNN buffer at 4° C. for 30 min. Lysates were clarified by centrifugation (10,000×g for 30 min at 4° C.) and protein concentrations determined using the method of Bradford (1976). Briefly, total protein (100 μg) was resolved on a 10% polyacrylamide gel and transferred to Immobilon-P […] membranes. Filters were incubated overnight at 4° C. in blotting solution (Tris-buffered saline containing 5% nonfat dried milk and 0.1% Tween 20), followed by a 1-h incubation with primary antibodies. Filters were washed three times in a blocking solution and incubated with horseradish peroxidase-conjugated secondary antibodies for 1 h. After three additional washes, the immune complexes were visualized by ECL detection.
KM20 cells were seeded onto sterile glass coverslips in 60 mm dishes and cultured for 16-24 h before treatment. Cells were transfected with pik3r1 or Akt1 or scrambled (control) siRNA sequences. At 96 h posttransfection, cells were washed in PBS, fixed in cold methanol for 5 min, and washed in three changes of PBS followed by a solution of 10% normal goat serum. After washing, cells were then incubated with the primary antibody (diluted in PBS with 1.5% normal goat serum) for 60 min. […] After three final washes, the slides were viewed with a fluorescence microscope.
It is speculated that siRNA directed to PI3K/Akt pathway components would inhibit cell growth and induce apoptosis in human colorectal cancer cell lines. […] In view of evidence that Akt plays a critical role in the prosurvival properties of PI3K (Nichol son, et al., 2002), activation of Akt in pik3r1 and Akt1 siRNA treated cells was then analyzed by Western blot and immunofluorescent analysis using a phospho-specific Ser473 Akt antibody.

Data set [2] has as its system KM12C cells. Kind of data set: DNA fragmentation assay (Cell Death Detection ELISA), KM12C cells. Type of data set: cell-based, human. As to the method:
Cells were transfected with pik3r1, Akt1 or scrambled siRNA. After 48 h, adherent cells were detached by rapid trypsinization, counted in a Hausser chamber and seeded at a density of 2×10^3 cells per well in 96-well flat-bottom microtiter plates and incubated in 250 μl of growth medium for 24 h at 37° C. Media were removed and either new complete media or TRAIL (100 ng/mL) was added in a final volume of 200 μL and allowed to grow for 24 h at 37° C. After treatment, DNA fragmentation was evaluated by examination of cytoplasmic histone-associated DNA fragments (mono- and oligonucleosomes) using a Cell Death Detection ELISA^Plus kit (Roche Molecular Biochemicals) according to the manufacturer's instructions and as previously described (Wang. et al., 2002). The experiments were repeated on at least 3 separate occasions.

Data set [3] deals with KM20 cells. Briefly: Ribonuclease protection assay, KM20 cells. Type of data set: cell-based, human. As to the method:
Cells were treated with pik3r1 and Akt1 siRNA and harvested 72 h later. RNA was isolated from cells using TRIzol® RNA reagent according to the manufacturer's protocol. A multiprobe template set (hAPO3c), which assesses expression of caspase 8, FASL, FAS, DR3, Decoy receptor 1 (DcR1), DR4, DR5, TRAIL, TNFR p55, TRADD and the housekeeping genes GAPDH and L32, as well as the Human Apoptosis hAPO-2b and hAPO-2c Template Set were labeled using Ambion T7 MAXIscript. The Ambion RPA III kit was then utilized to hybridize the RNA from the samples with the labeled probes. After RNAse treatment of hybridized samples, protected products were resolved on a 5% acrylamide gel, adsorbed onto filter paper, and exposed to Kodak BioMax MR film in a cassette at −70° C. and analyzed as previously described (Wang, et al., 2000).

Data set [4] relates to KM20 tumor xenografts. Kind of data set: Western blot of KM20 tumor xenografts after siRNA treatment. Type of data set: in vivo, mice. Here is the method:
as §1
Prior to tumor injection, KM20 cells were harvested, washed twice in ice-cold serum free minimum Eagle's medium, counted for viable cells by trypan blue exclusion. The cells were resuspended in the same medium and used to inject mice subcutaneously (sc) with 2×10^6 cells in a volume of 0.2 ml. After tumors reached ˜60 mm^2, mice were sacrificed and 9 mm^2 tumor xenografts were transferred to the left flank of athymic mice. After tumor xenografts reached ˜60 mm^2 (day 10), mice were randomly divided into three groups (n=5 mice/group): the first group of mice was treated with scrambled siRNA, the second and third groups were treated with siRNA (5 μg diluted in 100 μl of serum free medium) directed against pik3r1 or Akt1, respectively, as intratumoral injections. Treatments consisted of electrotherapy initiated from 2 to 3 min after intratumoral siRNA injection once a day every 3 days. Tumor growth was assessed every third day from day 10 onward by measuring the two greatest perpendicular tumor dimensions using vernier calipers (Mitutozo, Tokyo, Japan) (Wang, et al., 2002). Consistent with institutional requirements, the mice were euthanized once tumors grew to a size greater that 2 cm.
Electrotherapy consisted of intratumoral administration of pik3r1, Akt1 or scrambled control siRNA followed by exposure of tumor nodules to electric pulses. Square wave electric pulses of 70 μsec, 100 V amplitude were delivered through two parallel stainless steel electrodes (Tweezertrode Model 522, Holliston, Mass.) with an electropulsator BTX T 820 (Holliston, Mass.). In the study, plate electrodes with a distance of 10 mm between them were used for percutaneous delivery of electric pulses. Each run of electric pulses was delivered in two trains of tree pulses, with 1 sec interval, in two perpendicular directions. The orientation of the electric field was used to direct the uptake of the siRNA. Good contact between the electrodes and the skin was assured by means of a conductive gel. Nodules larger than 7 mm in diameter were treated with several runs of electric pulses, administered in adjacent positions in such a way that the whole tumor area was effectively treated.

Take “pik3r1 siRNA: siRNA to human pik3r1 (p85α) used in KM20/KM12C cells and xenografts; SEQ ID NO:24 vs. SEQ ID NO:25 (chain 1 GAAUAUACCCGCACAUCCCUU; chain 2 GGGAUGUGCGGGUAUAUUCUU; listed as RNA, chemistry not given here)”: the “pAkt expression (immunofluorescent analysis)” value in data set [1] (96 h posttransfection, compared with scrambled sequences) is “suppression”. Further, in data set [1] (Western blot, 72, 96 and 120 h after transfection in Example 19), the p85α protein levels result is listed as “reduced; also recorded: decreased”. Besides, the pAkt expression levels result in data set [1] (Western blot, phospho-Ser473 Akt antibody) is reported as “suppressed; also recorded: decreased”. Also, the “DNA fragmentation (apoptosis)” value in data set [2] (siRNA alone compared to scrambled sequence) was “increase; also recorded: induced”. For the same substance, in data set [2] (siRNA in combination with TRAIL 100 ng/mL), the “TRAIL-mediated apoptosis (DNA fragmentation)” value is reported as “significant augmentation”. Further, in data set [3], the “Bcl-w mRNA expression” value is reported as “decreased”; the “Bcl-x (L, S) mRNA expression” value is reported as “decreased”; the “expression of the other apoptotic-related genes in the probe set” value is given as “no marked change”; the “mRNA expression of DR4 and DR5” value was “increased”. In data set [4], the Bax protein expression result is “increased”, the PARP cleavage result is given as “increased”, the “activation of caspase-3” value was “increased” and the “activation of caspase-8” value is reported as “increased”. Also, in data set [4], the “activation of caspase-9” value is “increased”, the p85α expression entry is listed as “decreased” and the pAkt expression result is on record as “decreased”. In addition, in data set [4] (compared to scrambled sequence), the Bcl-xL protein expression result is “decreased” and the Mcl-1 protein expression entry is given as “decreased”. Besides, the “cytochrome C expression” value in data set [4] (compared with scrambled control) is given as “increased”.
